In ChEMBL document CHEMBL5236561, “Rugonidines A-F, Diastereomeric 1,6-Dioxa-7,9-diazaspiro[4.5]dec-7-en-8-amines from the Leaves of Alchornea rugosa” (J Nat Prod, 2021):
Calls of active or inactive are those of the source.

What was measured:
Format in all cases: functional, cell-based
3T3-L1 [1] = experiment: Induction of glucose uptake in mouse 3T3-L1 cells assessed as stimulation of in 2-NBDG uptake by measuring fluorescence intensity incubated for 1 hr in glucose free media hr by fluorescence microscopic analysis; details: dose 5-20 µM
3T3-L1 [2] = experiment: Induction of glucose uptake in mouse 3T3-L1 cells assessed as stimulation of in 2-NBDG uptake by measuring fluorescence intensity at 5 to 20 uM incubated for 1 hr in glucose free media hr by fluorescence microscopic analysis; details: dose 5-20 µM
3T3-L1 [3] = experiment: Induction of glucose uptake in mouse 3T3-L1 cells assessed as stimulation of in 2-NBDG uptake by measuring fluorescence intensity at 20 uM incubated for 1 hr in glucose free media hr by fluorescence microscopic analysis

Measured: Activity

CC(C)=CCNC1=NO[C@]2(CN1)Oc1cc(O)c3c(c1C2(C)C)O[C@H](c1ccc(O)c(O)c1)[C@@H](O[C@@H]1O[C@@H](C)[C@H](O)[C@@H](O)[C@H]1O)C3
active: 3T3-L1 [1] Dose-Dependent Effect | 3T3-L1 [2] | 3T3-L1 [3]

C[C@@H]1O[C@@H](O[C@H]2Cc3c(O)cc4c(c3O[C@@H]2c2ccc(O)c(O)c2)C(C)(C)[C@@]2(CNC(N)=NO2)O4)[C@H](O)[C@H](O)[C@H]1O
active: 3T3-L1 [1] Dose-Dependent Effect | 3T3-L1 [2] | 3T3-L1 [3]

CC(C)=CCNC1=NO[C@@]2(CN1)Oc1cc(O)c3c(c1C2(C)C)O[C@H](c1ccc(O)c(O)c1)[C@@H](O[C@@H]1O[C@@H](C)[C@H](O)[C@@H](O)[C@H]1O)C3
active: 3T3-L1 [1] Dose-Dependent Effect | 3T3-L1 [2] | 3T3-L1 [3]
